Experimental data reported in patent US12466849B2, “Anti-viral and anti-tumoral compounds” (YEDA RESEARCH AND DEVELOPMENT CO. LTD, priority 2020, dated 2025).
Where two headings read alike, the source gives them in different places. Residues, ends and D or L forms follow the SMILES beside them. *: point of attachment. Cbz = O=C(OCc1ccccc1)*; CH2F = FC*

Legend:
[1] = tested on: BK virus (BKV), Gardner strain; set-up: SI50 / SI90: unit not given beside the values
[2] = tested on: BK virus (BKV), Gardner strain; assay: microbe, parasite or virus in culture; conditions: Betapolyomavirus hominis, HFF
JC virus (JCV) [3] = assay: microbe, parasite or virus in culture; conditions: JC polyomavirus, COS-7
in vitro [4] = conditions: human
in vitro [5] = conditions: African green monkey
[6] = tested on: Epstein-Barr virus (EBV), Akata strain; assay: microbe, parasite or virus in culture; conditions: human gammaherpesvirus 4, Akata, 72 h
MOLT-3 cells = conditions: human, 7 d
[7] = tested on: Epstein-Barr virus (EBV), Akata strain; set-up: SI50 / SI90: unit not given beside the values
MERS-CoV (EMC) = type: cell-based; conditions: SI = CC50/EC50
[8] = tested on: enterovirus-68 (EV-68, US/DY/14-18953)
[9] = tested on: dengue virus-2 (DENV-2, New Guinea C); conditions: SI = CC50/EC50
[10] = tested on: influenza/California/07/2009 (H1N1)pdm09
[11] = tested on: SARS-CoV-2 (USA-WA1/2020); conditions: for SI50 (SI): SARS-CoV-2, SI = CC50/EC50
[12] = tested on: Tacaribe virus (TCRV, TRVL-11573); set-up: SI50 (SI): unit not given beside the values
[13] = tested on: SARS-CoV-2 (USA-WA1/2020); type: cell-based; conditions: compound replenished daily, SI = CC50/EC50
[14] = tested on: Influenza B/Florida/4/2006 (Yamagata)
[15] = tested on: respiratory syncytial virus (RSV, A2)
[16] = Rat plasma pharmacokinetics after IV infusion and PO dose; conditions: rats; 10 mg/kg IV 2-h infusion and PO
in vivo = conditions: male, Sprague-Dawley, rat; for AUC(0-inf): AUCInf; for AUC(0-t): AUClast
in vitro [17] = conditions: human; remark: listed apart in the source
[18] = Secondary JCV assay (qPCR), COS7 cells; conditions: African green monkey
JC virus (JCV) [19] = assay: Secondary JCV assay (qPCR), COS7 cells
[20] = rat; for Peak area ratio, parent: 1 µM
HCMV AD169 = assay: HCMV plaque reduction assay, MRC-5 cells, strain AD169; type: cell-based, Human cytomegalovirus
in vitro [21] = conditions: male, SD, rat, plasma
in vitro [22] = conditions: both, human, plasma
JC virus (JCV) [23] = tested on: JC virus (JCV)
in vitro [24] = conditions: human; remark: listed apart in the source
[25] = MRC-5 cytotoxicity assay (MTS) and visual cytotoxicity; conditions: human
in vitro [26] = conditions: rat
HFF cells = assay: Cell proliferation assay, human foreskin fibroblast (HFF) cells; type: cell-based; conditions: Homo sapiens, 72 h, cell number
[27] = human

Nc1ccn(C[C@@H](CO)OCP(=O)(O)O)c(=O)n1 [CDV, Cidofovir, reference compound]
SI50 [1]: >35 | EC50 [2]: 4.62 µM | EC90 [2]: 106 µM | EC50 ([2]; 168 h): 4.3 µM | EC90 ([2]; 168 h): 24.1 µM | EC50 (JC virus (JCV) [3]): 5.66 µM | EC90 (JC virus (JCV) [3]): 107 µM | CC50 at 7 d (in vitro [4]): 101 µM | CC50 (in vitro [5]): > 150 µM | EC50 [6]: 9.23 µM | EC90 [6]: 29.9 µM | CC50 (MOLT-3 cells): 97 µM | SI50 [7]: >11 | SI90 [7]: >3

CC(C)(C)C(=O)SCCOP(=O)(OCCSC(=O)C(C)(C)C)OCC1=CC(O)C(n2ccc(=O)[nH]c2=O)O1 (stereo not drawn) [SATE-ddhU]
Activity [1]: LO (key: NA (Not Active) SI50 = 0-3.9; LO (Slightly Active) SI50 = 4-9.9; MOD (Moderately Active) SI50 = 10-19.9; HI (Highly Active) SI50 = ≥20) | CC50 [1]: > 150 µM | EC50 [1]: 21.3 µM | EC90 [1]: > 150 µM | SI50 [1]: >7 | SI90 [1]: 1 | SI50 (SI) (MERS-CoV (EMC)): 0 | CC50 [8]: > 100 µM | SI50 (SI) ([8]; EV-68, SI = CC50/EC50): 0 | SI50 (SI) [9]: 0 | CC50 [10]: 560 µM | SI50 (SI) ([10]; Influenza(H1N1), SI = CC50/EC50): 0 | CC50 [11]: 76 µM | SI50 (SI) [11]: 3.5 | CC50 [12]: 170 µM | SI50 (SI) [12]: 0 | SI50 [13]: >6.7 | CC50 [14]: 560 µM | SI50 (SI) ([14]; Influenza B, SI = CC50/EC50): 0 | Activity [7]: NA (key: NA (Not Active) SI50 = 0-3.9; MOD (Moderately Active) SI50 = 4-9.9; HI (Highly Active) SI50 = ≥10) | CC50 [7]: 109 µM | EC50 [7]: > 30 µM | EC90 [7]: > 30 µM | SI50 [7]: <4 | SI90 [7]: <4 | CC50 [15]: 180 µM | SI50 (SI) ([15]; RSV, SI = CC50/EC50): 0

CCCCCCCCCCCCCCCCOCCCOP(=O)(O)OCC1=C[C@H](O)[C@H](n2cnc3c(=O)[nH]c(N)nc32)O1 [AB23040]
Activity [1]: LO (key: NA (Not Active) SI50 = 0-3.9; LO (Slightly Active) SI50 = 4-9.9; MOD (Moderately Active) SI50 = 10-19.9; HI (Highly Active) SI50 = ≥20) | activity against BK virus (in words) [1]: Low activity | EC50 [2]: 4.97 µM | EC90 [2]: > 6 µM | tolerability / adverse events (AE) [16]: well-tolerated | concentration at 0.5 h (in vivo; iv, 10 mg/kg): 2670 nM | concentration at 1 h (in vivo; iv, 10 mg/kg): 3260 nM | concentration at 2 h (in vivo; iv, 10 mg/kg): 4070 nM | concentration at 4 h (in vivo; iv, 10 mg/kg): 133 nM | concentration at 8 h (in vivo; iv, 10 mg/kg): 13 nM | concentration at 24 h (in vivo; iv, 10 mg/kg): 5 nM | concentration at 72 h (in vivo; iv, 10 mg/kg): 4 nM | AUC(0-inf) (in vivo; iv, 10 mg/kg): 9.13 µM·h | AUC(0-t) (in vivo; iv, 10 mg/kg): 9.12 µM·h | clearance (in vivo; iv, 10 mg/kg, CL): 28.3 mL/min/kg | Cmax (in vivo; iv, 10 mg/kg, Cmax): 3650 nM | half-life (in vivo; iv, 10 mg/kg, Terminal t1/2): 37 h | half-life (in vivo; iv, 10 mg/kg, t1/2): 0.8 h | Tmax (in vivo; iv, 10 mg/kg): 2 h | half-life (in vivo; iv, t1/2 in plasma): < 1 h | bioavailability (in vivo; po, 10 mg/kg): 4% | concentration at 0.5 h (in vivo; po, 10 mg/kg): 38 nM | concentration at 1 h (in vivo; po, 10 mg/kg): 58 nM | concentration at 2 h (in vivo; po, 10 mg/kg): 77 nM | concentration at 4 h (in vivo; po, 10 mg/kg): 30.4 nM | concentration at 8 h (in vivo; po, 10 mg/kg): 24 nM | AUC(0-inf) (in vivo; po, 10 mg/kg): 0.503 µM·h | AUC(0-t) (in vivo; po, 10 mg/kg): 0.387 µM·h | MRT inf (in vivo; po, 10 mg/kg, MRTInf): 5.2 h | Tmax (in vivo; po, 10 mg/kg): 2 h | microsomal CLint at 1 μM (in vitro [17]; s9): 7 µL/min/mg | half-life at 1 µM (in vitro [17]; s9, T1/2): 4.69 h | half-life at 1 μM (in vitro [17]; s9, T1/2): 3.31 h | EC50 (JC virus (JCV) [3]): 8.85 µM | EC90 (JC virus (JCV) [3]): 28 µM | CC50 at 7 days [18]: 31.3 µM | EC50 (JC virus (JCV) [19]; JC polyomavirus, COS-7, 168 h): 0.37 µM | EC90 (JC virus (JCV) [19]; JC polyomavirus, COS-7, 168 h): 18.6 µM | Activity (JC virus (JCV) [19]; secondary JCV assay, COS7 cells, class by SI50): HI (HI (Highly Active) SI50 = ≥20) | antiviral activity against JCV (in words) (JC virus (JCV) [19]; secondary testing, COS7 cells): high | CLhep ([20]; 1 μM): 18.7 mL/min/kg | Eh ([20]; 1 μM): 21% | Peak area ratio, parent ([20]; 15 min): 1.16E−01 | Peak area ratio, parent ([20]; 60 min): 1.11E−01 | hydrolytic stability in hepatic S9 (in words) ([20]; s9): least stable | T1/2 ([20]; s9, 1 μM): 3.95 h | EC50 (HCMV AD169; Human betaherpesvirus 5, 144 h, hCMV AD169, MRC5 cells, plaque assay, 6-days duration): 22.1 µM | antiviral activity against hCMV (in words) (HCMV AD169; MRC5 cells, AD169 strain): impressive antiviral activity | Selectivity Index (CC50/EC50) (HCMV AD169; hCMV AD169, MRC5 cells): >4.52 | half-life at 0.75 µM (in vitro [21]): > 9.32 h | half-life at 0.75 μM (in vitro [21]): > 9.3 h | half-life at 0.75 µM (in vitro [22]): > 9.32 h | half-life at 0.75 μM (in vitro [22]): > 9.3 h | Activity (JC virus (JCV) [23]): LO (key: NA (Not Active) SI50 = 0-3.9; LO (Slightly Active) SI50 = 4-9.9; MOD (Moderately Active) SI50 = 10-19.9; HI (Highly Active) SI50 = ≥20) | activity against JC virus (in words) (JC virus (JCV) [23]): Low activity | CC50 at 7 d (in vitro [4]): 112 µM | CC50 (in vitro [5]): 80.7 µM | CC50 (in vitro [24]): 25.1 µM | CC50 at 6 days [25]: > 100 µM | microsomal CLint at 1 μM (in vitro [26]; s9): 5.8 µL/min/mg | half-life at 1 µM (in vitro [26]; s9, T1/2): 5.72 h | half-life at 1 μM (in vitro [26]; s9, T1/2): 3.95 h | IC50 (HFF cells): 65.9 µM | CLhep ([27]; 1 μM): 10.6 mL/min/kg | Eh ([27]; 1 μM): 24% | Peak area ratio, parent ([27]; 15 min, 1 μM): 1.33E−01 | Peak area ratio, parent ([27]; 60 min, 1 μM): 1.05E−01 | hydrolytic stability in hepatic S9 (in words) ([27]; s9): least stable | T1/2 ([27]; s9, 1 μM): 3.32 h

CC(C)CC(NC(=O)OCc1ccccc1)C(=O)NC(CCC(=O)N(C)C)C(=O)CF (stereo not drawn) [M128533, Z-Leu-Gln(NMe2)-FMK, reference compound] (Cbz-Leu-Glu(NMe2)-CH2F; configuration not given here)
SI50 (SI) (MERS-CoV (EMC)): >13 | SI (SARS-CoV; SARS-CoV, SI = CC50/EC50): >1300 | EQ50 (SARS-CoV; SARS-CoV, Vero 76 cells, positive control): 0.075 µg/mL | CC50 (SARS-CoV; Vero 76 cells without virus, positive control): >100 µg/mL | CC50 [11]: > 100 µg/mL | SI50 (SI) [11]: >1100 | SI50 [13]: >260 | CC50 (SARS-CoV-2): >100 µg/mL | EQ50 (SARS-CoV-2): 0.33 µg/mL | SI (SARS-CoV-2; SARS-CoV-2, SI = CC50/EC50): >300
